Patent publication US4945160A, “Preparation of certain 7-substituted quinolones” (Warner-Lambert Company, priority 1988, dated 1990)
≈ marks a conversion by molar mass, not a printed value. Read-outs that look alike come from different tables or passages of the source.

Columns and labels:
Format in all cases: cell-based
E. cloacae = test: In vitro antibacterial activity, microdilution MIC, E. cloacae; settings: Enterobacter cloacae, microdilution method, read-out: Minimal Inhibitory Concentration MIC
Text: (§1) The compounds of the invention display antibacterial activity when tested by the microdilution method as described in Heifetz, et al, Antimicr. Agents and Chemoth., 6, 124 (1974), which is incorporated herein by reference.
(§2) By use of this method, the following minimum inhibitory concentration values (MICs in μg/ml) were obtained for representative compounds of the invention.

E. coli = test: In vitro antibacterial activity, microdilution MIC, E. coli; settings: Escherichia coli, microdilution method, read-out: Minimal Inhibitory Concentration MIC
Text: as §1, §2

K. pneumoniae = test: In vitro antibacterial activity, microdilution MIC, K. pneumoniae; settings: Klebsiella pneumoniae, microdilution method, read-out: Minimal Inhibitory Concentration MIC
Text: as §1, §2

P. rettgeri = test: In vitro antibacterial activity, microdilution MIC, P. rettgeri; settings: Providencia rettgeri, microdilution method, read-out: Minimal Inhibitory Concentration MIC
Text: as §1, §2

P. aeruginosa = test: In vitro antibacterial activity, microdilution MIC, P. aeruginosa; settings: Pseudomonas aeruginosa, microdilution method, read-out: Minimal Inhibitory Concentration MIC
Text: as §1, §2

S. aureus = test: In vitro antibacterial activity, microdilution MIC, S. aureus; settings: microdilution method; for MIC: Staphylococcus aureus, first S. aureus line (strain not given), read-out: Minimal Inhibitory Concentration MIC; for Minimal Inhibitory Concentration MIC: second S. aureus line (strain not given)
Text: as §1, §2

S. faecalis = test: In vitro antibacterial activity, microdilution MIC, S. faecalis; settings: Enterococcus faecalis, microdilution method, read-out: Minimal Inhibitory Concentration MIC
Text: as §1, §2

S. pneumoniae = test: In vitro antibacterial activity, microdilution MIC, S. pneumoniae; settings: Streptococcus pneumoniae, microdilution method, read-out: Minimal Inhibitory Concentration MIC
Text: as §1, §2

S. pyogenes = test: In vitro antibacterial activity, microdilution MIC, S. pyogenes; settings: Streptococcus pyogenes, microdilution method, read-out: Minimal Inhibitory Concentration MIC
Text: as §1, §2

[1] = first E. coli line (strain not given)
[2] = second E. coli line, last of table (strain not given)

Structure (SMILES)	MIC (E. cloacae)	MIC (E. coli; [1])	MIC (E. coli; [2])	MIC (K. pneumoniae)	MIC (P. rettgeri)	MIC (P. aeruginosa)	MIC (S. aureus)	Minimal Inhibitory Concentration MIC (S. aureus)	MIC (S. faecalis)	MIC (S. pneumoniae)	MIC (S. pyogenes)
C=Cc1c(F)cc2c(=O)c(C(=O)O)cn(C3CC3)c2c1F [Compound 5, 1-Cyclopropyl-7-ethenyl-6,8-difluoro-1,4-dihydro-4-oxo-3-quinolinecarboxylic acid]	0.1 µg/mL (≈ 0.343 µM)	0.2 µg/mL (≈ 0.687 µM)	0.1 µg/mL (≈ 0.343 µM)	0.4 µg/mL (≈ 1.37 µM)	0.4 µg/mL (≈ 1.37 µM)	1.6 µg/mL (≈ 5.49 µM)	≤ 0.025 µg/mL	≤ 0.025 µg/mL	0.2 µg/mL (≈ 0.687 µM)	0.8 µg/mL (≈ 2.75 µM)	0.8 µg/mL (≈ 2.75 µM)
CCn1cc(C(=O)O)c(=O)c2cc(F)c(C3CCN(Cc4ccccc4)C3)nc21 (stereo not shown) [Compound 10]	12.5 µg/mL (≈ 31.6 µM)	12.5 µg/mL (≈ 31.6 µM)	12.5 µg/mL (≈ 31.6 µM)	25 µg/mL (≈ 63.2 µM)	> 25 µg/mL	> 25 µg/mL	6.3 µg/mL (≈ 15.9 µM)	6.3 µg/mL	25 µg/mL (≈ 63.2 µM)	12.5 µg/mL (≈ 31.6 µM)	12.5 µg/mL (≈ 31.6 µM)
